Bridges are numbered along the chain shown (N, C = ends). Where no end group is shown, it is not given here. The star is where a group is joined. NOTA = O=C(O)CN1CCN(CC(=O)O)CCN(CC(=O)*)CC1

Two substances from publication PMC8909107, “Imaging Kv1.3 Expressing Memory T Cells as a Marker of Immunotherapy Response” (Cancers, 2022) can be followed below.

In data set [1] the target is T1, KV1.3 channels (L929 fibroblasts stably expressing KV1.3) (Mus musculus, UniProt P16390).
T1 construct: expressed in transfected cells
The experiment in a line: Patch-clamp (QPatch HTX), run-down of Kv1.3 currents after overnight exposure. The conditions noted are these: L929-KV1.3 cells, overnight exposure 0.1, 1 or 10 μM; current density (pA/pF) at pulses 18-20 normalized to control; n = 13; read-out: IC50 (50% suppression) from normalized current density. Type of data set: cell-based. How it is done:
The effects of the peptides NOTA-KCNA3P and EgK5 on KV1.2, KV1.3 and KV1.5 [19] channels were evaluated by patch-clamp as detailed in the Supplementary Materials (Supplementary Figure S3) using a QPatch HTX automated electrophysiology platform.
We used patch-clamp analysis to determine if NOTA-KCNA3P modulates Kv1.3 channels such as EgK5. We exposed L929 fibroblasts stably expressing KV1.3 channels overnight to NOTA-KCNA3P (0.1, 1 or 10 μM) or EgK5 (10 μM) dissolved in P6N buffer, or to media containing an equal volume of P6N buffer. […] Concentration–response curves generated with either normalized current amplitude or normalized current density yielded IC50 (50% suppression) values of […] and 50 nM, respectively, for NOTA-KCNA3P (Supplementary Figure S3D,E). […]
[18F]AlF-NOTA-KCNA3P was between 8.2 - 8.3 min. […] The radiochemical purity of [18F]AlF-NOTA-KCNA3P was assessed by analytical radio-HPLC (Aeris™ 5µm PEPTIDE XB-C18, 100 Å, 250 x 4.6 mm; 1 ml / min, λ = 220 nm). […]
NOTA-KCNA3P and EgK5 were prepared as 1-10 mM stock solutions in P6N buffer (10 mM sodium phosphate, 0.8% w/v, NaCl, and 0.05% v/v Tween 20, pH 6), diluted with 0.1% (w/v) BSA in external buffer. The effects of peptides on KV1.2, KV1.3 and KV1.5[1] channels were evaluated by patch-clamp using a QPatch HTX automated electrophysiol-ogy platform (Sophion, Denmark) (Supplementary Figure S3). […]

Data set [2] is described as follows: PET-CT tumour retention of the tracer after ICI treatment. Particulars: BALB/c, mouse, CT26 tumour, iv, 10 MBq, total radioactivity, PET-CT day 12, 20 min static from 60 min post-injection, ~10 MBq i.v., mean ± SD. In kind it is in vivo, BALB/c mice. An excerpt:
All animal procedures strictly followed IACUC guidelines (IACUC No. 181399) and conformed to NIH guidelines and public law. Development of the animal model has been described previously. Briefly, BALB/c mice aged 6–8 weeks were purchased from In Vivos (Singapore) and implanted subcutaneously into the right shoulder with the murine colon cancer cell line CT26 (ATCC, 2 × 10^5 cells per animal 1:1 (v:v) ratio in Matrigel). Tumour volumes were repeatedly measured on days 6, 9, 12, 15, 19 and 21 post tumour implantation. The mice were randomised and dosed by intraperitoneal (i.p.) injection on days 6, 9 and 12 following tumour inoculation. Treatment groups included control (5 mg/kg, rat IgG2a isotype control, α-trinitrophenol mAb, IP), αPD1 mAb monotherapy (10 mg/kg, rat IgG2a anti-mouse PD-1, RMP1-14) and combined αPD1 and αCTLA4 mAb therapy (10 mg/kg and 5 mg/kg, respectively, mouse IgG2b anti-mouse CTLA-4, 9D9, Bio-X Cell).
(§1) Mice were imaged under isoflurane anaesthesia and injected with [^18F]AlF-NOTA-KCNA3P (~10 MBq) via the lateral tail vein. Dynamic time–activity curves were acquired to assess tracer uptake and clearance profiles (Supplementary Figure S4) and tail vein blood samples taken to assess in vivo metabolic stability (Supplementary Figure S7). To stratify response to therapy, animals were imaged on day 12 using a Siemens Inveon PET-CT as previously described. Briefly, 20 min static PET acquisitions were acquired from 60 min post-injection and analysis of the reconstructed calibrated images was performed and volumes of interest delineated by CT imaging were used to determine tissue uptake (whole body distribution shown for reference in Supplementary Figure S8). Data are expressed as % of the injected dose per gram (%ID/g) of tumour tissue in the volume of interest.
Tumour uptake of [^18F]AlF-NOTA-KCNA3P was heterogeneous depending on treatment regime and treatment efficacy (Figure 3A) with a tumour-to-blood ratio (TBR) of ~2 in tumour responders and a TBR of ~1 in tumour non-responders (TNRs). Low tumour uptake of [^18F]AlF-NOTA-KCNA3P was measured in the TNRs and the control treatment arm. […] Tumour uptake of [^18F]AlF-NOTA-KCNA3P was sufficient to distinguish from background and differentiated responsive tumours from treated non-responders (Table 1 and Figure 3B,C) in vivo. Ex vivo biodistribution was used to confirm the imaging results (Supplementary Figure S5). Importantly, no difference was seen between non-responders and responders in the biodistribution of [^18F]AlF-NOTA-KCNA3P in muscle, blood, lung, skin, heart and brain, the only difference being in the tumour (Supplementary Figure S5).

On the set-up of data set [3]: species or system mice. Particulars: in vivo, ~20MBq i.v., blood samples at 0, 30, 60 and 120 min p.i., radioHPLC, over 120 minutes. An excerpt:
Mice were imaged under isoflurane anaesthesia and injected with [^18F]AlF-NOTA-KCNA3P (~10 MBq) via the lateral tail vein. Dynamic time–activity curves were acquired to assess tracer uptake and clearance profiles (Supplementary Figure S4) and tail vein blood samples taken to assess in vivo metabolic stability (Supplementary Figure S7). To stratify response to therapy, animals were imaged on day 12 using a Siemens Inveon PET-CT as previously described. […] Data are expressed as % of the injected dose per gram (%ID/g) of tumour tissue in the volume of interest.
Supplementary Figure S5. […] ICI treated responder (TR, black) and treated non responder (TNR, white) animals were sacrificed 80min post-injection, tissues excised, weighed and radioactivity quantified using a Wallac gamma counter. […]
Tumour Kv1.3 expression on infiltrating lymphocytes (TILs) were quantified using standard western blotting procedures as previously described. […]
An equal amount of 10% sulfosalicylic acid was added to the supernatant plasma samples and vortexed to precipitate out remaining proteins. The samples were centrifuged at 2,500 x g for 5 min at 4 °C, and the supernatant analyzed via radioHPLC. […]

Data set [4] is classed as in vivo, BalbC mice bearing CT26 tumours. Here is the method:
as §1
Tumour uptake of [^18F]AlF-NOTA-KCNA3P was heterogeneous depending on treatment regime and treatment efficacy (Figure 3A) with a tumour-to-blood ratio (TBR) of ~2 in tumour responders and a TBR of ~1 in tumour non-responders (TNRs). Low tumour uptake of [^18F]AlF-NOTA-KCNA3P was measured in the TNRs and the control treatment arm. […] Tumour uptake of [^18F]AlF-NOTA-KCNA3P was sufficient to distinguish from background and differentiated responsive tumours from treated non-responders (Table 1 and Figure 3B,C) in vivo. Ex vivo biodistribution was used to confirm the imaging results (Supplementary Figure S5). Importantly, no difference was seen between non-responders and responders in the biodistribution of [^18F]AlF-NOTA-KCNA3P in muscle, blood, lung, skin, heart and brain, the only difference being in the tumour (Supplementary Figure S5). […]
1.7 In vivo biodistribution of [18F]AlF-NOTA-KCNA3P
The biodistribution of [18F]AlF-NOTA-KCNA3P was assessed in BalbC mice bearing CT26 tumours treated with combined PD-1 and CTLA4 therapy. The animals were im-aged dynamically for 120 minutes and the distribution and excretion characteristics as- […]
the kidneys and hepatobiliary routes (Supplementary Figure S4). Blood clearance is […]
Supplementary Figure S5. Ex vivo biodistribution analysis of [18F]AlF-NOTA-KCNA3P retention in selected organs. ICI treated responder (TR, black) and treated non responder (TNR, white) animals were sacrificed 80min post-injection, tissues excised, weighed and radioactivity quantified using a Wallac gamma counter. Bars represent the mean of 5 animals ± SEM, * P<0.05.
1.9 Western blot analysis of Kv1.3 […]
The following anti- […]
bodies were used: anti-Kv1.3 KCNA3 (APC-101, Alomone) and anti-GAPDH (SC-47724, […]
Supplementary Figure S6. […]

T1 sequence (P16390 whole entry): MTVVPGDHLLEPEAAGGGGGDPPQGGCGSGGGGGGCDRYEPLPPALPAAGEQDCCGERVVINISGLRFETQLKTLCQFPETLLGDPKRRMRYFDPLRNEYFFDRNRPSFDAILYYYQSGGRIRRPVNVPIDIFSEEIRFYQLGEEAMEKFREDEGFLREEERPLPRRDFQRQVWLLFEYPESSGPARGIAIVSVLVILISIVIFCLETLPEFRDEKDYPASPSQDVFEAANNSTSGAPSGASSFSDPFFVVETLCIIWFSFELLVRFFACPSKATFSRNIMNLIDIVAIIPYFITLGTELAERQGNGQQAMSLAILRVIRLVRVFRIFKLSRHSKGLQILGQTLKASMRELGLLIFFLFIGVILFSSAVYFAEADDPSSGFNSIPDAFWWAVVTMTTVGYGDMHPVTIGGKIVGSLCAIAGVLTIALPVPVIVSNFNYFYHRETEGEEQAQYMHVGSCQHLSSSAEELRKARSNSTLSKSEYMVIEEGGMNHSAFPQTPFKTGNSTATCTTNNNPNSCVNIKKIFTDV

With “{NOTA}-RTCESASHKFEGPCLRDSNCANVCKTEGFHGGKCKGLRRRCFCTKHC (disulfide 3-47, 14-34, 20-41, 24-43) [NOTA-KCNA3P]”, in data set [1], the IC50 – broadly, the midpoint of a concentration-inhibition curve – stood at 50 nM.
Regarding “{NOTA}-RTCESASHKFEGPCLRDSNCANVCKTEGFHGGKCKGLRRRCFCTKHC (disulfide 3-47, 14-34, 20-41, 24-43) [[^18F]AlF-NOTA-KCNA3P]”, the tissue uptake (commonly the share of the injected amount in each gram of the tissue) was 0.51 ± 0.19 %ID/g in data set [2] (Control group (isotype IgG), n = 10 mice/group); 0.53 ± 0.2 %ID/g in data set [2] (Treatment non-responders (TNR)); 1.3 ± 0.36 %ID/g in data set [2] (Treatment responsive tumours (TR), αPD1 + αCTLA4); 0.87 ± 0.15 %ID/g in data set [2] (Treatment responsive tumours (TR), αPD1). The “metabolism of parent tracer in plasma” value in data set [3] was “less than 30%”. The Blood clearance entry in data set [4] (dynamic PET 120 minutes) is “rapid”. The muscle uptake result in data set [4] (dynamic PET 120 minutes) is recorded as “relatively low”. Besides, the excretion profile entry in data set [4] (dynamic PET 120 minutes, CT26 tumour mice treated with combined PD-1 and CTLA4 therapy) is “excretion via the kidneys and hepatobiliary routes”. Moreover, the “difference between non-responders and responders in biodistribution in muscle, blood, lung, skin, heart and brain” value in data set [4] (ex vivo biodistribution, 80min post-injection, gamma counter, 5 animals) is listed as “no difference”.
